Entries after “also recorded” stand apart in the source; their conditions may differ. Where two headings read alike, the source gives them in different places. Where a SMILES comes first, the peptide text is derived from it. [ ]: non-standard residue; d: D form. The star is where a group is joined. Sta = CC(C)C[C@H](N)[C@@H](O)CC(=O)O; Isovaleryl = CC(C)CC(=O)*
Experiments:
[1] = system: urinary protease activity at neutral pH (IGFBP-1 proteolysis); test: Effect of protease inhibitors, divalent cations and peptides on urinary protease activity at neutral pH (radioiodinated npIGFBP-1, SDS-PAGE, autoradiography); type: biochemical, human; details: for effect on proteolysis in urine: not shown; for effect of peptides on IGFBP-1 proteolysis: increasing concentrations pre-incubated with npIGFBP-1 30 min 22 C, then 0.5 μl urine 2 h 37 C (FIG. 8A)
Experimental: A: Effect of 100 μM pepstatin A, 10 μM E64, 2.5 mM leupeptin, 10 mM PMSF, 100 μM aprotinin, 2.5 mM kallikrein inhibitor and benzamidine (mM) and chymostatin (μM). Molecular mass markers are indicated by the arrows. B: Densitometry measurements of intact IGFBP-1. The results are the mean±SEM, pooled from 6-8 experiments. […] The mean effect of urine pooled from all the experiments is shown in the open bar. *, P<0.05; ** P<0.01 (paired t-test);
(§1) Urine, 0.5 μl, was added and the incubation continued for 2 h at 37 C. The fragments were separated by 14% SDS-PAGE and detected by autoradiography. Molecular mass markers are indicated by the arrows. B: Biotinylated recombinant pIGFBP-1 was bound to streptavidin coated plates and then incubated without (open squares) or with 100 ng IGF-I (closed circles) or des(1-3)IGF-I (open circles). Wells were then incubated with increasing concentration of partially purified azurocidin at […] for 2-h at 37 C. After acidification of all wells, including controls, with 1 M HCl to dissociate bound peptides, radioiodinated IGF-I was added for 2 h at 22 C, unbound tracer was removed by washing, and the bound counts determined;
IGFBP-1 was radioiodinated with ^125I using the chloramine T method. After incubation without and with protease in phosphate buffered saline, pH 7 at 37 C, fragments were separated on 14% non-reducing SDS-PAGE, the gel dried, and visualized by autoradiography.

[2] = system: primary human skeletal myotubes; test: 2-Deoxyglucose transport (glucose uptake); type: cell-based; details: IGF-II 10 ng/ml (submaximal), 90 min
Experimental: Primary human skeletal myotubes were incubated under serum-free conditions for 24 h. Glucose uptake was determined as described in the Methods. The results are the mean±SEM of four experiments using cells from different individuals each with 3 replicates; and are expressed as the percentage of uptake in the absence of IGF-II or IGFBP-1 for each. The effect of IGF-II is shown in the hatched bars. The effect of pIGFBP-1 on stimulation of glucose uptake by 10 ng/ml IGF-II was analyzed by 2-way ANOVA for each of the 20 ng/ml and 80 ng/ml concentrations; *, P<0.01, **, P<0.001, compared to no IGF-II; ††, P<0.001, compared to no IGFBP-1 or intact IGFBP-1. […]
2-Deoxyglucose transport: Glucose uptake was performed as previously described for primary human muscle cells (Bouzakri et al, Diabetologia, 47, 1314-1323, 2004). […] Cells were then washed four times with pre-warmed buffer (150 mmol/l NaCl, […] KCl, 1.2 mmol/l MgSO4, 1.2 mmol/l CaCL2, 2.5 mmol/l NaH2PO4, 10 mmol/l HEPES, pH 7.4) and glucose uptake was measured for 15 min using [3H]2-deoxyglucose (50 μmol/l, 14,800 Bq/well). Results were expressed as the percentage of glucose uptake in the absence of IGF-II or IGFBP-1.
Statistical analyses. The effect of IGF-II and IGFBP-1 in muscle cell culture was analyzed by two-way ANOVA. […]

[3] = system: MCF-7 human breast cancer cells; test: 3H-Thymidine incorporation; type: cell-based; details: IGF-II 10 ng/ml, 24 h, serum-free; 6 experiments
Experimental: Cell studies. MCF-7 human breast cancer cells were maintained in MEM alpha ribonucleic acid-free medium supplemented with 10% foetal bovine serum, 50 Unit/ml penicillin sodium, 50 μg/ml streptomycin sulfate and 2 mM L-glutamine at 37C in 5% CO2 humidified environment.
3H-Thymidine incorporation: Experiments were carried out in 48-well plates, at 70% confluence. After a 20-h incubation in serum-free medium supplemented with 0.1% BSA, the experimental conditions were added for a further 24 h, with ^3H-thymidine (1 μCi/ml) added for the last 4 h. Cells were then washed with ice-cold 0.9% NaCl three times and incubated with ice-cold 5% TCA for 15 min at 22 C. The fixed nucleotides were solubilized in 0.1M NaOH at 22 C and subjected to liquid scintillation counting.
Statistical analyses. The effect of IGF-II and IGFBP-1 in muscle cell culture was analyzed by two-way ANOVA. Where significant differences were observed, comparisons were made using the Tukey test. In the study using MCF-7 breast cancer cells the Wolcoxon Matched Pairs test was used. Statistical significance was set at P<0.05.

[4] = system: azurocidin-dependent protease activity; test: Azurocidin-dependent protease activity on plate-bound biotinylated pIGFBP-1 with pre-bound peptides; type: biochemical, human; details: 100 ng peptide on plate-bound pIGFBP-1, partially purified azurocidin, 2 h, 37 C (FIG. 8B)
Experimental: as §1
(§2) IGFBP-1 was biotinylated with sulfo-NHS-LC-LC-biotin and bound to streptavidin coated plates, then incubated without and with protease in phosphate buffered saline, pH 7 at 37 C. After washing, IGF-binding fragments were determined by incubation with radioiodinated IGF-I for 2 h at 22 C. Unbound tracer was removed by washing, and the bound counts determined.

[5] = system: neutral IGFBP-1 protease activity in human urine; test: Effect of pepstatin on urinary IGFBP-1 protease activity at pH 7 (streptavidin plate, IGF-II binding); type: biochemical; details: pepstatin A 10 μM, pH 7, 5 μl urine, 2 h, 37 C
Experimental: (§3) A-D: Radioiodinated recombinant npIGFBP-1 was subjected to 14% SDS-PAGEalone (*) or after proteolysis for 2 h at 37 C with 0.5 μl urine or 0.25 μl eluate, and the fragments detected by autoradiography. Molecular mass markers are indicated by the arrows. A: pH-dependence of urinary IGFBP-1 protease activity. B: Urine, flowthrough (FT) from the heparin affinity column, and eluate at pH 2 and 7. C: pHdependence of eluate from heparin affinity chromatography. D: Acid-activated protease activity is destroyed by neutralization. Radioiodinated pIGFBP-1 was incubated without (*) and with 0.5 μl urine for 2 h at 37 C at pH 2. Prior to incubation the urine was either untreated (lane a), adjusted to pH 2 for 15 min (lane B) or adjusted to pH 2 for 15 min and then to pH 7 for a further 15 min (lane C). E: Effect of pepstatin. […] The wells were washed, incubated with radioiodinated IGF-II for 2 h at 22 C, washed, and the bound counts detected;
as §2

[6] = system: acid-activated IGFBP-1 protease activity in human urine; test: Effect of pepstatin on urinary IGFBP-1 protease activity at pH 2 (streptavidin plate, IGF-II binding); type: biochemical; details: pepstatin A 10 μM, pH 2, 5 μl urine, 2 h, 37 C
Experimental: as §3, §2

[7] = 10 mM cation, pH 7, 0.5 μL urine, 2 h, 37 C

[Cl-].[Cl-].[Co+2] [CoCl2]
effect of divalent metal cations on proteolysis (densitometry of intact IGFBP-1) ([1]; pH 7): inhibited

Cc1ccc(S(=O)(=O)N[C@@H](CCCCN)C(=O)CCl)cc1 [TLCK]
effect on proteolysis in urine ([1]; concentration not given): did not

O=C(O)CN(CCOCCOCCN(CC(=O)O)CC(=O)O)CC(=O)O [EGTA]
effect on the degree of IGFBP-1 degradation ([1]; data not shown): no effect

O=C(O)CN(CCN(CC(=O)O)CC(=O)O)CC(=O)O [EDTA]
effect on the degree of IGFBP-1 degradation [1]: no effect

[Cl][Ni][Cl] [NiCl2]
effect of divalent metal cations on proteolysis (densitometry of intact IGFBP-1) [1, 7]: inhibited

cyclohexylacetyl-Phe-Arg-Ser-Val-Gln [kallikrein inhibitor]
effect on protease activity in urine ([1]; 100 μM, pH 7, 0.5 μL urine, 2 h, 37 C): inhibited

insulin
effect of peptides on IGFBP-1 proteolysis [1]: no effect

c1cnc2c(c1)ccc1cccnc12 [1,10-phenothroline]
effect on the degree of IGFBP-1 degradation ([1]; data not shown): no effect

IGF-II: human insulin-like growth factor II
stimulation of glucose uptake [2]: more than 2 fold | effect of peptides on IGFBP-1 proteolysis [1]: Partial inhibition | stimulation of 3H-thymidine incorporation [3]: 2 fold

O=S(=O)(F)Cc1ccccc1 [PMSF]
effect on protease activity in urine ([1]; 10 mM, pH 7, 0.5 μL urine, 2 h, 37 C): inhibited

CC(C)C[C@H](NC(=O)[C@@H](NC(=O)N[C@@H](Cc1ccccc1)C(=O)O)[C@@H]1CCN=C(N)N1)C(=O)N[C@H](C=O)Cc1ccccc1 [chumostatin]
effect on protease activity in urine ([1]; 10 μM, pH 7, 0.5 μL urine, 2 h, 37 C): inhibited

aprotinin
effect of aprotinin on protease activity (IGFBP-1 proteolysis) ([1]; 100 μM aprotinin (FIG. 7A), pH 7, different experiments): either without effect, or even promoted protease activity; also recorded: increasing IGFBP-1 proteolysis

des(1-3)-IGF-I: truncated IGF-I from GroPep
effect of peptide on IGFBP-1 proteolysis [4]: no effect

Cc1ccc(S(=O)(=O)N[C@@H](Cc2ccccc2)C(=O)CCl)cc1 [TPCK]
effect on proteolysis in urine ([1]; 1 mM): inhibited

[Cl][Cu][Cl] [CuCl2]
effect of divalent metal cations on proteolysis (densitometry of intact IGFBP-1) [1, 7]: inhibited

CC(C)CC(=O)N[C@H](C(=O)N[C@H](C(=O)N[C@@H](CC(C)C)[C@@H](O)CC(=O)N[C@@H](C)C(=O)N[C@@H](CC(C)C)[C@@H](O)CC(=O)O)C(C)C)C(C)C [pepstatin, pepstatin A] (Isovaleryl-VV[Sta]A[Sta]-OH)
effect on neutral urinary IGFBP-1 protease activity [5]: not the neutral activity | effect on acid-activated urinary IGFBP-1 protease activity [6]: inhibits

IGF-I: recombinant human insulin-like growth factor I
effect of peptides on IGFBP-1 proteolysis [1]: Partial inhibition

[Ca+2].[Cl-].[Cl-] [CaCl2]
effect of divalent metal cations on proteolysis (densitometry of intact IGFBP-1) [1, 7]: significant promoting effect
